Laboratory results as given in US20080279912A1, “Use of Cis-Epoxyeicosatrienoic Acids And Inhibitors of Soluble Epoxide Hydrolase to Alleviate Eye Disorders” (Regents of the University of California Office of …, priority 2005, published 2008).

Key:
[1] = Stability of EETs on storage, handling and administration; format: physicochemical; conditions: if not exposed to acidic conditions or to sEH
[2] = tested on: New Zealand white rabbits; assay: Intraocular pressure in rabbits after treatment of the eye (tonometer); format: in vivo; conditions: one rabbit per treatment, 50 μL/eye; for Change in intraocular pressure (IOP treated eye minus control eye) after topical instillation: 100 μg/mL in artificial tears with 1% DMSO; for Time after treatment at which IOP decline appeared: 100 μg/mL, topical
Procedure: Female New Zealand white rabbits (2.7-3.0 kg) were obtained from Harlan (Indianapolis, Ind.). On test day, rabbits were lightly tranquilized with torbugesic/acepromazine at 0.04 mg/kg, administered subcutaneously. Ten to twenty minutes after administration of the tranquilizer, a drop of proparacaine hydrochloride (0.5% ophthalmic solution) was instilled in each eye to numb the eye prior to taking the intraocular pressure measurement. After 2-5 min, intraocular pressure in each eye (right and left) was measured using a tonometer (Tono-Pen®, Mentor Opthalmics, Santa Barbara, Calif.). Measurements were taken every 3-5 minutes to obtain baseline pressure. Then various treatments were applied (right eye) and after 3-5 minutes measurements were again taken every 3-5 minutes. Data are expressed as the change in intraocular pressure (“IOP”) in the treated eye compared to the control eye (IOP in treated eye—IOP in control eye). […] DMSO is also known to aid penetration through the skin. For a treatment to be effective, it must penetrate the cornea. Later treatments utilized subconjunctival injection. This delivers the compound below the conjunctiva where it is rapidly absorbed, avoiding issues of absorption.
Treatments: Each rabbit was administered one of the following treatments: (1). Epoxyeicosatrienoic acids (EETs) only, 100 μg/mL carboxylmethyl cellulose artificial tears containing 1% dimethyl sulfoxide (DMSO), 50 μL/eye (2). […] EETs only, 10 μg/mL carboxylmethyl cellulose artificial tears containing 1% DMSO, 0.1 cc/eye administered subconjunctivally (4).
Compounds used for the topical treatment of eye diseases become clinically useful only if they can penetrate the intact epithelium of the cornea and conjunctiva and achieve clinically useful concentrations within the eye. Thus for these trials we used both instillation by drops and by subconjunctival injections.

Metabolic stability = format: in vitro ADME
sEH = biological target: T1, sEH (Homo sapiens, UniProt P34913); assay: Inhibition of sEH (standard assays, stated in text); format: biochemical
T1 sequence (P34913 1-555): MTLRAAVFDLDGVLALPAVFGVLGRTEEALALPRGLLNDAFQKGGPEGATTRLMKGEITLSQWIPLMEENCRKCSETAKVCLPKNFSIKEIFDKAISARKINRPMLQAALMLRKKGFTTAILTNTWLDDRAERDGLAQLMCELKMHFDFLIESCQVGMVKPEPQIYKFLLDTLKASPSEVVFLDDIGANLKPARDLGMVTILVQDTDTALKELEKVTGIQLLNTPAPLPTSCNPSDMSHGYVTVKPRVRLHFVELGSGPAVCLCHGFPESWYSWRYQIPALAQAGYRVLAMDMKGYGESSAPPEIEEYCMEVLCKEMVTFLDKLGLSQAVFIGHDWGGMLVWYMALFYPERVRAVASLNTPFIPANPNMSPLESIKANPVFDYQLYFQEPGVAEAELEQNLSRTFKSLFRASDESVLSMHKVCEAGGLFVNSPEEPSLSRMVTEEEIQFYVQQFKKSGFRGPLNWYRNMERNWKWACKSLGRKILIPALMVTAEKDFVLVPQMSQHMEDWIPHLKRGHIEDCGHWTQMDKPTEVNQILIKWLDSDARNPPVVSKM
Text: Derivatives of urea are transition state mimetics that form a preferred group of sEH inhibitors. […] Any particular urea derivative or other compound can be easily tested for its ability to inhibit sEH by standard assays, such as those discussed herein. The production and testing of urea and carbamate derivatives as sEH inhibitors is set forth in detail in, for example, Morisseau et al., Proc Natl Acad Sci (USA) 96:8849-8854 (1999).
Any of a number of standard assays for determining epoxide hydrolase activity can be used to determine inhibition of sEH. […] Suitable in vitro assays are described in Zeldin et al., J. Biol. Chem. 268:6402-6407 (1993). Suitable in vivo assays are described in Zeldin et al., Arch Biochem Biophys 330:87-96 (1996).

Row | Stability [1] | Compound | Change in intraocular pressure (IOP treated eye minus control eye) after topical instillation [2] | Time after treatment at which IOP decline appeared [2] | Metabolic stability (Metabolic stability) | Activity as an inhibitor of sEH (sEH)
1 | stable | cis-Epoxyeicosatrienoic acids [EETs] | definite declining trend | about 45 minutes |  | 
2 |  | O=C(O)CCCCCCCCCCCNC(=O)NC12CC3CC(CC(C3)C1)C2 [AUDA, 12-(3-Adamantan-1-yl-ureido)dodecanoic acid] | distinct decline in pressure | about 20 minutes |  | 
3 |  | CCCCCCCCCCCCNC(=O)NC12CC3CC(CC(C3)C1)C2 [ADU, N-Adamantyl-N′-dodecyl urea] |  |  | metabolically stable | particularly high activity
